This is an account of results in PubChem BioAssay (NCI).

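1) Cells in 96-well plates. 2) Compound, 48 h, 5 concentrations. 3) Linear interpolation between surrounding doses. 4) Unreached endpoint = highest concentration. GI50 marks 50% less growth. TGI: concentration producing complete growth inhibition.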 Some results are limits rather than exact numbers.

One assay has as its system OVCAR-3 ovarian. Briefly: DTP human tumour cell line panel, 48 h.
The TGI is the concentration at which net growth stops. A low value points to greater sensitivity of the cells. The compound `OCCNCCN1CCN(CCCN2c3ccccc3Sc3ccc(C(F)(F)F)cc32)CC1` displayed a TGI of 40.3 µM.
Turning to `O=C(O)c1cc2c(ncc3c(=O)n(-c4ccccc4)[nH]c32)s1`, the TGI was > 100 µM.
As to `O=C(CCl)NNC1=Nc2ccc(Cl)cc2SC1`, the concentration for total growth inhibition (TGI) was found to be 3.28 µM.
With `CCCc1c(-c2ccccc2)[nH]c2ccccc2c1=O`, the TGI was > 100 µM.
`Cc1ccc(C2OC(COCc3ccc(Cl)cc3)C(OCc3ccc(Cl)cc3)C2O)cc1` (configuration not stated) showed a TGI of 27.5 µM.
Turning to `C[N+](C)(C)CCc1ccccc1`, the TGI is > 100 µM.
`COc1c(Br)cc2c(c1OC)C(Br)CCC(Br)(Br)C2=O` (configuration not stated) showed a TGI of 2.91 µM.
For the compound `O=C1C=CC2(C=C1)O[C@H](Cc1ccccc1)[C@@H](Cc1ccccc1)O2`, the TGI was 1.17 µM.
Consider `CCCNC(=O)C(C)C1CCC2(C)C=CC(=O)C(C)=C2C1O` (configuration not stated), for which the TGI is > 100 µM.
Consider `Nc1ccn(C2C=C(CO)C(O)C2O)c(=O)c1` (configuration not stated), for which the TGI was > 625 µM.
In the case of `COc1nc(=O)n(COC(CO)CN2C(=O)c3ccccc3C2=O)cc1Cc1cccc(OCc2ccccc2)c1` (configuration not stated), the TGI amounted to 58.9 µM.

For another assay, the system named is RXF 393 renal. Briefly: DTP human tumour cell line panel, 48 h.
On to `N#C[C@H](OC1OC(COC2OC(CO)C(O)C(O)C2O)C(O)C(O)C1O)c1ccccc1` (some centres not stated), for which the TGI was > 250 µM.
As a reminder, the GI50 is the concentration at which growth is held to half of that of the control. Turning to `CCN(CC)c1ccc2cc(C(=O)Nc3ccc4[nH]c(C(=O)N5C[C@@H](CCl)c6c5cc(OC(=O)Nc5ccccc5)c5[nH]cc(C)c65)cc4c3)oc2c1`, the GI50 is 202 µM.
Turning to `Cn1c(=O)c2[nH]c(CCNC(=O)c3ccccc3)nc2n(C)c1=O`, the total growth inhibition concentration (TGI) is > 100 µM.
`Cc1cc(S(=O)(=O)Nc2nc3ccccc3nc2-c2cccc([N+](=O)[O-])c2)c(S)cc1Cl` showed a TGI of 74.4 µM.
On the same count and under the same terms, as for `NCCSS(=O)(=O)CCN`, the figure is > 100 µM.
Consider `CC(=O)Oc1cc2c(cc1OC(C)=O)OCC(c1ccccc1)C2` (configuration not stated), for which the TGI is 30 µM.
For `OCCNCCN1CCN(CCCN2c3ccccc3Sc3ccc(C(F)(F)F)cc32)CC1`, the TGI worked out at 47.5 µM.
For `O=C(O)c1cc2c(ncc3c(=O)n(-c4ccccc4)[nH]c32)s1`, the TGI was > 100 µM.
The same measure, in the same setting: with `O=C(CCl)NNC1=Nc2ccc(Cl)cc2SC1` the figure was 3.44 µM; with `CCCc1c(-c2ccccc2)[nH]c2ccccc2c1=O`, > 100 µM.
With `Cc1ccc(C2OC(COCc3ccc(Cl)cc3)C(OCc3ccc(Cl)cc3)C2O)cc1` (configuration not stated), the TGI amounted to 10.8 µM.
Consider `CO/N=C(/C)c1ccc(NC(=O)CSc2nnc(-c3ccncc3)n2-c2ccccc2)cc1`, for which the GI50 is 2.24 µM and the total growth inhibition concentration (TGI) amounted to 4.93 µM.
Take `C[N+](C)(C)CCc1ccccc1`: the concentration for total growth inhibition (TGI) was > 100 µM.
On the same count and under the same terms, with `COc1c(Br)cc2c(c1OC)C(Br)CCC(Br)(Br)C2=O` (configuration not stated) the figure was 1.82 µM.
In the case of `O=C1C=CC2(C=C1)O[C@H](Cc1ccccc1)[C@@H](Cc1ccccc1)O2`, the TGI came out at 0.974 µM.
On to `CCCNC(=O)C(C)C1CCC2(C)C=CC(=O)C(C)=C2C1O` (configuration not stated), for which the concentration for total growth inhibition (TGI) is > 100 µM.

Another assay relates to SF-268 CNS. Briefly: DTP human tumour cell line panel, 48 h.
As to `N#C[C@H](OC1OC(COC2OC(CO)C(O)C(O)C2O)C(O)C(O)C1O)c1ccccc1` (some centres not stated), the TGI is > 250 µM.
As to `CCN(CC)c1ccc2cc(C(=O)Nc3ccc4[nH]c(C(=O)N5C[C@@H](CCl)c6c5cc(OC(=O)Nc5ccccc5)c5[nH]cc(C)c65)cc4c3)oc2c1`, the GI50 is 133 µM and the TGI stood at 742 µM.
In the case of `Cn1c(=O)c2[nH]c(CCNC(=O)c3ccccc3)nc2n(C)c1=O`, the TGI is > 100 µM.
Same read-out and setting: as for `Cc1cc(S(=O)(=O)Nc2nc3ccccc3nc2-c2cccc([N+](=O)[O-])c2)c(S)cc1Cl`, the figure is 56.2 µM; as for `O=c1ssc(=Nc2ccccc2)n1-c1ccccc1`, 37.1 µM.
With `NCCSS(=O)(=O)CCN`, the TGI is > 100 µM.
On to `CC(=O)Oc1cc2c(cc1OC(C)=O)OCC(c1ccccc1)C2` (configuration not stated), for which the TGI stood at 52.2 µM.
With `OCCNCCN1CCN(CCCN2c3ccccc3Sc3ccc(C(F)(F)F)cc32)CC1`, the TGI is 44 µM.
On to `O=C(O)c1cc2c(ncc3c(=O)n(-c4ccccc4)[nH]c32)s1`, for which the concentration for total growth inhibition (TGI) is > 100 µM.
Still for that read-out and setting: with `O=C(CCl)NNC1=Nc2ccc(Cl)cc2SC1` the figure was 3.92 µM; with `CCCc1c(-c2ccccc2)[nH]c2ccccc2c1=O`, > 100 µM.
Consider `C[N+](C)(C)CCc1ccccc1`, for which the TGI is > 100 µM.
The compound `COc1c(Br)cc2c(c1OC)C(Br)CCC(Br)(Br)C2=O` (configuration not stated) returned a TGI of 4.37 µM.
Consider `O=C1C=CC2(C=C1)O[C@H](Cc1ccccc1)[C@@H](Cc1ccccc1)O2`, for which the TGI was determined as 2.48 µM.
`CCCNC(=O)C(C)C1CCC2(C)C=CC(=O)C(C)=C2C1O` (configuration not stated): the concentration for total growth inhibition (TGI) was > 100 µM.
Turning to `O=C(Nc1nc2ccc([N+](=O)[O-])cc2s1)C(=O)C(C(=O)c1ccccc1F)C1OC(=O)c2ccccc21` (configuration not stated), the TGI was > 100 µM.
The same measure, in the same setting: with `Nc1ccn(C2C=C(CO)C(O)C2O)c(=O)c1` (configuration not stated) the figure was > 625 µM.

In another assay the test system is SK-OV-3 ovarian. The experiment in a line: DTP human tumour cell line panel, 48 h.
Regarding `N#C[C@H](OC1OC(COC2OC(CO)C(O)C(O)C2O)C(O)C(O)C1O)c1ccccc1` (some centres not stated), the TGI is > 250 µM.
On to `Cc1cc(S(=O)(=O)Nc2nc3ccccc3nc2-c2cccc([N+](=O)[O-])c2)c(S)cc1Cl`, for which the TGI amounted to 34 µM.
For `O=c1ssc(=Nc2ccccc2)n1-c1ccccc1`, the TGI is > 100 µM.
In the case of `NCCSS(=O)(=O)CCN`, the TGI is > 100 µM.
Regarding `CC(=O)Oc1cc2c(cc1OC(C)=O)OCC(c1ccccc1)C2` (configuration not stated), the TGI came to 72.3 µM.
Still for that read-out and setting: as for `OCCNCCN1CCN(CCCN2c3ccccc3Sc3ccc(C(F)(F)F)cc32)CC1`, the figure is 77.9 µM; as for `O=C(O)c1cc2c(ncc3c(=O)n(-c4ccccc4)[nH]c32)s1`, > 100 µM; as for `O=C(CCl)NNC1=Nc2ccc(Cl)cc2SC1`, 16.7 µM.
On the same count and under the same terms, with `CCCc1c(-c2ccccc2)[nH]c2ccccc2c1=O` the figure was > 100 µM; with `Cc1ccc(C2OC(COCc3ccc(Cl)cc3)C(OCc3ccc(Cl)cc3)C2O)cc1` (configuration not stated), 15.3 µM.
Take `CO/N=C(/C)c1ccc(NC(=O)CSc2nnc(-c3ccncc3)n2-c2ccccc2)cc1`: the GI50 is 3.34 µM and the TGI is > 100 µM.
As to `C[N+](C)(C)CCc1ccccc1`, the TGI was > 100 µM.
`COc1c(Br)cc2c(c1OC)C(Br)CCC(Br)(Br)C2=O` (configuration not stated) displayed a TGI of 10.5 µM.
Compound `O=C1C=CC2(C=C1)O[C@H](Cc1ccccc1)[C@@H](Cc1ccccc1)O2` displayed a TGI of 13.7 µM.
For `CCCNC(=O)C(C)C1CCC2(C)C=CC(=O)C(C)=C2C1O` (configuration not stated), the TGI was > 100 µM.
The compound `O=C(Nc1nc2ccc([N+](=O)[O-])cc2s1)C(=O)C(C(=O)c1ccccc1F)C1OC(=O)c2ccccc21` (configuration not stated) registered a TGI of 93.7 µM.
In the case of `Nc1ccn(C2C=C(CO)C(O)C2O)c(=O)c1` (configuration not stated), the TGI is > 625 µM.
In the case of `COc1nc(=O)n(COC(CO)CN2C(=O)c3ccccc3C2=O)cc1Cc1cccc(OCc2ccccc2)c1` (configuration not stated), the TGI worked out at 90.6 µM.

The next assay relates to SN12C renal. Briefly: DTP human tumour cell line panel, 48 h.
For the compound `N#C[C@H](OC1OC(COC2OC(CO)C(O)C(O)C2O)C(O)C(O)C1O)c1ccccc1` (some centres not stated), the TGI is > 250 µM.
`CCN(CC)c1ccc2cc(C(=O)Nc3ccc4[nH]c(C(=O)N5C[C@@H](CCl)c6c5cc(OC(=O)Nc5ccccc5)c5[nH]cc(C)c65)cc4c3)oc2c1`: the TGI is > 1000 µM.
Take `Cn1c(=O)c2[nH]c(CCNC(=O)c3ccccc3)nc2n(C)c1=O`: the TGI was > 100 µM.
The same measure, in the same setting: as for `Cc1cc(S(=O)(=O)Nc2nc3ccccc3nc2-c2cccc([N+](=O)[O-])c2)c(S)cc1Cl`, the figure is 78.5 µM; as for `O=c1ssc(=Nc2ccccc2)n1-c1ccccc1`, 41.1 µM; as for `NCCSS(=O)(=O)CCN`, > 100 µM.
Regarding `CC(=O)Oc1cc2c(cc1OC(C)=O)OCC(c1ccccc1)C2` (configuration not stated), the TGI amounted to 56.6 µM.
Same read-out and setting: with `OCCNCCN1CCN(CCCN2c3ccccc3Sc3ccc(C(F)(F)F)cc32)CC1` the figure was 33.9 µM; with `O=C(O)c1cc2c(ncc3c(=O)n(-c4ccccc4)[nH]c32)s1`, > 100 µM.
`O=C(CCl)NNC1=Nc2ccc(Cl)cc2SC1`: the TGI was determined as 4.07 µM.
In the case of `CCCc1c(-c2ccccc2)[nH]c2ccccc2c1=O`, the TGI is > 100 µM.
For the compound `Cc1ccc(C2OC(COCc3ccc(Cl)cc3)C(OCc3ccc(Cl)cc3)C2O)cc1` (configuration not stated), the TGI was 13.1 µM.
For `C[N+](C)(C)CCc1ccccc1`, the TGI was > 100 µM.
Still for that read-out and setting: with `COc1c(Br)cc2c(c1OC)C(Br)CCC(Br)(Br)C2=O` (configuration not stated) the figure was 1.42 µM.
Compound `O=C1C=CC2(C=C1)O[C@H](Cc1ccccc1)[C@@H](Cc1ccccc1)O2` had a TGI of 3.01 µM.
Same read-out and setting: as for `CCCNC(=O)C(C)C1CCC2(C)C=CC(=O)C(C)=C2C1O` (configuration not stated), the figure is > 100 µM.
For `O=C(Nc1nc2ccc([N+](=O)[O-])cc2s1)C(=O)C(C(=O)c1ccccc1F)C1OC(=O)c2ccccc21` (configuration not stated), the concentration for total growth inhibition (TGI) is > 100 µM.
With `Nc1ccn(C2C=C(CO)C(O)C2O)c(=O)c1` (configuration not stated), the TGI is > 625 µM.
On to `COc1nc(=O)n(COC(CO)CN2C(=O)c3ccccc3C2=O)cc1Cc1cccc(OCc2ccccc2)c1` (configuration not stated), for which the TGI was 58.5 µM.

The next assay has as its system TK-10 renal. Briefly: DTP human tumour cell line panel, 48 h.
With `Cn1c(=O)c2[nH]c(CCNC(=O)c3ccccc3)nc2n(C)c1=O`, the TGI is > 100 µM.
As to `Cc1cc(S(=O)(=O)Nc2nc3ccccc3nc2-c2cccc([N+](=O)[O-])c2)c(S)cc1Cl`, the TGI was > 100 µM.
Turning to `O=c1ssc(=Nc2ccccc2)n1-c1ccccc1`, the TGI is > 100 µM.
For `NCCSS(=O)(=O)CCN`, the TGI was > 100 µM.
The compound `OCCNCCN1CCN(CCCN2c3ccccc3Sc3ccc(C(F)(F)F)cc32)CC1` showed a TGI of 37.2 µM.
Turning to `O=C(O)c1cc2c(ncc3c(=O)n(-c4ccccc4)[nH]c32)s1`, the TGI is > 100 µM.
Same read-out and setting: with `CCCc1c(-c2ccccc2)[nH]c2ccccc2c1=O` the figure was > 100 µM.
`Cc1ccc(C2OC(COCc3ccc(Cl)cc3)C(OCc3ccc(Cl)cc3)C2O)cc1` (configuration not stated) yielded a TGI of 29.7 µM.
Turning to `C[N+](C)(C)CCc1ccccc1`, the TGI was > 100 µM.
`COc1c(Br)cc2c(c1OC)C(Br)CCC(Br)(Br)C2=O` (configuration not stated) yielded a TGI of 8.39 µM.
In the case of `O=C1C=CC2(C=C1)O[C@H](Cc1ccccc1)[C@@H](Cc1ccccc1)O2`, the TGI was determined as 1.66 µM.
Regarding `O=C(Nc1nc2ccc([N+](=O)[O-])cc2s1)C(=O)C(C(=O)c1ccccc1F)C1OC(=O)c2ccccc21` (configuration not stated), the total growth inhibition concentration (TGI) was > 100 µM.
Regarding `COc1nc(=O)n(COC(CO)CN2C(=O)c3ccccc3C2=O)cc1Cc1cccc(OCc2ccccc2)c1` (configuration not stated), the TGI was > 100 µM.
